Experimental data: patent US20130115256A1, “METHODS FOR TREATING OR PREVENTING VASCULAR GRAFT FAILURE” (priority 2010, published 2013)

Legend:
[1] = system: P38MAPK; assay: p38 MAPK radiometric kinase assay; assay type: biochemical; details: MMI-0100 100 μM; remaining kinase activity
From the text: (§1) A commercial radiometric assay service was used to test the specificity and potency of MMI-0100 ([…]; SEQ ID NO: 1) by measuring its half maximal inhibitory concentrations (IC50). This quantitative assay measures how much MK2 inhibitor (MMI-0100; […] (SEQ ID NO: 1)) is needed to inhibit 50% of a given biological process or component of a process (i.e., an enzyme, cell, or cell receptor). Specifically, in these assays, a positively charged substrate is phosphorylated with a radiolabeled phosphate group from an ATP if the kinase is not inhibited by an inhibitor peptide. The positively charged substrate then is attracted to a negatively charged filter membrane, quantified with a scintillation counter, and compared to a 100% activity control. […]
For the p38 MAPK (p38 Mitogen-Activated Protein Kinase) radiometric assay, 5-10 mU of p38 MAPK was incubated with 25 mM Tris pH 7.5, 0.02 mM EGTA, 0.33 mg/mL myelin basic protein (a substrath for p38 MAPK), 10 mM MgAcetate, and 10 μM of [y-^33P-ATP] in the final reaction volume of 25 μl. […] The washed P30 filtermat was dried and its radioactivity was measured by scintillation counter.
(§2) IC50 values for inhibitor peptides were determined using Millipore's IC50 Profiler Express service. […]

[2] = molecular target: T1, MK2 (Homo sapiens, UniProt P49137); assay: MK2 radiometric kinase assay; assay type: biochemical
T1 construct: purchased Millipore (IC50 Profiler Express / KinaseProfiler service)
T1 sequence (P49137 whole entry, species assumed): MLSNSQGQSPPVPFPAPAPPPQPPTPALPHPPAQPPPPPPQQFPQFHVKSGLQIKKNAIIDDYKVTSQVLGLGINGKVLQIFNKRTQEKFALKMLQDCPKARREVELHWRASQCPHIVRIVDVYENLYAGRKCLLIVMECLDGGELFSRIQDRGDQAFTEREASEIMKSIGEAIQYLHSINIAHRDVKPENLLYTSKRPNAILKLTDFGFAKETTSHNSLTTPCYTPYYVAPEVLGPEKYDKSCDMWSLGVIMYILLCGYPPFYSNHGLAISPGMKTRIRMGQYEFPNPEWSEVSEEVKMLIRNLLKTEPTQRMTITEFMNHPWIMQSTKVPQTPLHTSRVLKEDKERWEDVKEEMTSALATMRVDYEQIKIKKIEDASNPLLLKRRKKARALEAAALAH
From the text: as §1, with “control. ATP concentrations within 15 μM of the apparent Km for ATP were chosen since an ATP concentration near the Km may allow for the kinases to have the same relative amount of phosphorylation activity.” for “control.”
For the MK2 radiometric assay, 5-10 mU of MK2 was incubated with 50 mM Na b-glycerophosphate pH 7.5, 0.1 mM EGTA, 30 μM KKLNRTLSVA (SEQ ID NO: 34; a substrate peptide for MK2), 10 mM MgAcetate, and 10 μM of [y-^33P-ATP] in a final reaction volume of 25 μl. […] The washed P30 filtermat was dried and its radioactivity was measured by scintillation counter.
as §2

[3] = Toxicity observation (test not specified)
[4] = system: human saphenous vein (HSV); assay: Sodium nitroprusside-induced relaxation of human saphenous vein in muscle bath; details: for relaxation (percent relaxation): 100 μM pretreatment, phenylephrine 10^-6 M
Experimental: In preparation for testing vein segment functional viability, HSV rings were weighed and their lengths recorded. To focus on smooth muscle responses, the endothelium was mechanically denuded by rolling the luminal surface of each ring at the tip of a fine vascular forceps before suspension in a muscle bath containing a bicarbonate buffer (120 mM NaCl, 4.7 mM KCl, 1.0 mM MgSO4, 1.0 mM NaH2PO4, 10 mM glucose, 1.5 mM CaCl2, and 25 mM […], pH 7.4) equilibrated with 95% O2 and 5% CO2 at 37° C. The rings were stretched and the length progressively adjusted until maximal tension was obtained. Normalized reactivity was obtained by determining the passive length-tension relationship for each vessel segment. Rings were maintained at a resting tension of 1 g, which produces maximal responses to contractile agonists as previously determined, and equilibrated for 2 hours in buffer. Force measurements were obtained using a Radnoti Glass Technology (Monrovia, Calif.) force transducer (159901A) interfaced with a Powerlab data acquisition system and Chart software (AD Instruments, Colorado Springs, Colo.).
HSV rings were first contracted with 110 mM KCl (with equimolar replacement of NaCl in bicarbonate buffer) and the generated force was measured. 110 mM KCl causes membrane depolarization, leading to contraction of vessels containing functionally viable smooth muscle. After multiple KCl challenges, rings were washed and allowed to equilibrate in bicarbonate solution for 30 min, and then contracted with phenylephrine (PE, 10^−7-10^−6 M). Rings were relaxed with a cumulative log dose of sodium nitroprusside (SNP), a nitric oxide donor, and the force generated was recorded. All rings were again washed and equilibrated in buffer for 15 minutes. Rings were then incubated with either buffer alone or buffer plus 100 μM of MMI-0100 ([…] (SEQ ID NO: 1)) for 2 hours, followed by treatment with the same doses of PE and SNP, and the forces generated again recorded. Measured force was normalized for ring weight and length and percent relaxation was calculated; force generated with 10^−6M of PE was set as 0% relaxation.
The enhancing effect of MMI-0100 ([…]; SEQ ID NO: 1) on smooth muscle relaxation was examined by pre-treating harvested human saphenous vein (HSV) with MMI-0100 ([…]; SEQ ID NO: 1) before SNP treatment. Segments of human saphenous vein (HSV) were equilibrated in a muscle bath and pretreated with a control solution (0.01M phosphate-buffered solution, PBS) or MMI-0100 ([…] (SEQ ID NO: 1); 30 μM, 2 hrs), contracted with norepinephrine. and relaxed with increasing doses of sodium nitroprusside (SNP, 0-1 μM). Percentage of relaxation at 0, 0.01, 0.1, and 1.0 μM of SNP was measured. […]

## YARAAARQARAKALARQLGVAA [MMI-0100]
[1]
  Percent Activity, P38MAPK: 60%
[2]; MMI-0100 100 μM, remaining kinase activity
  Percent Activity, MK2: <5%
[2]; concentration used for specificity profiling (Table 2, 100 μM)
  inhibition of MK2 activity: > 95%
[3]
  evidence of toxicity, tissue erosion, or necrosis: did not show any evidence
[4]; 30 μM, 2 hrs pretreatment, norepinephrine contraction, SNP 0-1 μM, n=3
  increase in relaxation compared to HSV pretreated with control solution: about 40%
[4]; 10^-7 M SNP (untreated control 72.768±6.99)
  relaxation (percent relaxation): 92.54±3.09
[4]; 10^-8 M SNP (untreated control 10.825±5.62)
  relaxation (percent relaxation): 25.622±6.38
